Laboratory results taken from article PMC10859675, “Short‐chain mono‐carboxylates as negative modulators of allosteric transitions in Gloeobacter violaceus ligand‐gated ion channel, and impact of a pre‐β5 strand (Loop Ω) double mutation on crotonate, not butyrate effect” (Physiological Reports, 2024).
Several values for one entry are separate records, joined by “and”; a condition that tells them apart may be missing. Equal values may be shown once. Read-outs that look alike come from different tables or passages of the source.

Key:
WT GLIC [1] = molecular target: T1, WT GLIC (Gloeobacter violaceus, UniProt Q7NDN8); assay: Whole-cell patch-clamp, protocol with pre-stimulation at low pHo, WT GLIC expressed in tk-ts13 cells; format: cell-based; details: for current in the presence of mono-CBX, % of control: 1 mM at pHo 5.0, WT sample of Figure 7, mean; for current in the presence of mono-CBX, % of control (100*I CBX/I CONTROL): 1 mM at pHo 5.0, WT sample of Figures 4 and 5, mean; for activity on GLIC current (NAM effect): 1 mM with pre-stimulation, pHo 5.0; for reversibility of negative modulation (slow components): after compound wash-out; for current in the presence of di-CBX, % of control: 10 mM at pHo 5.0, mean
T1 construct: expressed in transfected cells; host or cells: tk-ts13 cells, GLIC DNA in pMT3 vector
T1 sequence (Q7NDN8 44-359): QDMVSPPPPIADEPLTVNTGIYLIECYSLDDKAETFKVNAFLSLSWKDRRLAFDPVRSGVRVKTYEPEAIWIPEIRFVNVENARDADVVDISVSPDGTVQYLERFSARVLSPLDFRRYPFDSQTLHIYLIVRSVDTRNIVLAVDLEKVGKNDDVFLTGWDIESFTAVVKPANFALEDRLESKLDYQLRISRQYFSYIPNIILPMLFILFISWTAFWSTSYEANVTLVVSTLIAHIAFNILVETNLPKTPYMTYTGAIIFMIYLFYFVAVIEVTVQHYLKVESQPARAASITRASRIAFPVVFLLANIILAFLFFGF
Protocol: We give here the main points and some differences.
All solutions were prepared from the acid forms of the buffers/acido‐basic compounds (BAPTA, HEPES, MES, CBX, etc.). Stock 100 mmol/L (mM) mono‐CBX water solutions were prepared directly at pH 5 (NaOH/HCl), aliquoted and kept at −20°C.
Fit of concentration‐effect curves. For proton activation curves, the peak value (Ipk[pHo]; inward current value at maximal absolute value) within 30 s was considered (y), and a plot against H^+ activity value (x) was fitted with a 3‐parameter Hill equation: y=ymax*1/1+EC50nH/x^nH , giving I max, EC50, and pH50 = −log(EC50). For potentiation/inhibition, data for [percent of control current] in the presence of the compound (y = 100*I CBX/I CONTROL) to [compound concentration value] […] For most compounds are presented: a fit of the mean of data (Graphs), and the mean ± standard deviation (SD) of data from individual cells (values in text).

GLIC R105A = molecular target: T2, GLIC R105A (Gloeobacter violaceus, UniProt Q7NDN8, R147A); format: cell-based; details: 1 mM at pHo 5.0, mean
T2 construct: expressed in transfected cells; host or cells: tk-ts13 cells, pMT3 vector
T2 sequence (Q7NDN8 44-359 R147A): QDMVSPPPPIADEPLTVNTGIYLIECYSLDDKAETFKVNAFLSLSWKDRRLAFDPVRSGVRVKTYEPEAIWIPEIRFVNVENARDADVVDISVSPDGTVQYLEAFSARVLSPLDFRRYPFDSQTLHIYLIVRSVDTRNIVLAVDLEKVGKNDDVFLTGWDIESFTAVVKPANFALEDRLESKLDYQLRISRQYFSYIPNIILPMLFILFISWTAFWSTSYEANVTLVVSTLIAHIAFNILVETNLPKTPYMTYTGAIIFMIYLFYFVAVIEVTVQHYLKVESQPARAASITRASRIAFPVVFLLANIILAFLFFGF
Protocol: (§1) ACET (Figure 4) and the 4‐carbon compounds BUTYR and CROTON (Figure 5) were tested on the CBX‐pockets single mutants, at 1 mM with pre‐stimulation at pHo 5.0.

GLIC E177A = molecular target: T3, GLIC E177A (Gloeobacter violaceus, UniProt Q7NDN8, E219A); format: cell-based; details: 1 mM at pHo 5.0, mean
T3 construct: expressed in transfected cells; host or cells: tk-ts13 cells, pMT3 vector
T3 sequence (Q7NDN8 44-359 E219A): as the sequence (Q7NDN8 44-359 R147A) above, with A104R, E176A counted along it
Protocol: as §1

GLIC R77A = molecular target: T4, GLIC R77A (Gloeobacter violaceus, UniProt Q7NDN8, R119A); format: cell-based; details: 1 mM at pHo 5.0, mean
T4 construct: expressed in transfected cells; host or cells: tk-ts13 cells, pMT3 vector
T4 sequence (Q7NDN8 44-359 R119A): as the sequence (Q7NDN8 44-359 R147A) above, with R76A, A104R counted along it
Protocol: as §1

GLIC Y102A = molecular target: T5, GLIC Y102A (Gloeobacter violaceus, UniProt Q7NDN8, Y144A); format: cell-based; details: 1 mM at pHo 5.0, mean
T5 construct: expressed in transfected cells; host or cells: tk-ts13 cells, pMT3 vector
T5 sequence (Q7NDN8 44-359 Y144A): as the sequence (Q7NDN8 44-359 R147A) above, with Y101A, A104R counted along it
Protocol: as §1

GLIC E104Q = molecular target: T6, GLIC E104Q (Gloeobacter violaceus, UniProt Q7NDN8, E146Q); format: cell-based; details: 1 mM at pHo 5.0, mean
T6 construct: expressed in transfected cells; host or cells: tk-ts13 cells, pMT3 vector
T6 sequence (Q7NDN8 44-359 E146Q): as the sequence (Q7NDN8 44-359 R147A) above, with E103Q, A104R counted along it
Protocol: as §1

GLIC E181A = molecular target: T7, GLIC E181A (Gloeobacter violaceus, UniProt Q7NDN8, E223A); format: cell-based; details: 1 mM at pHo 5.0, versus WT GLIC
T7 construct: expressed in transfected cells; host or cells: tk-ts13 cells, pMT3 vector
T7 sequence (Q7NDN8 44-359 E223A): as the sequence (Q7NDN8 44-359 R147A) above, with A104R, E180A counted along it
Protocol: as §1

GLIC D86A‐D88A = molecular target: T8, GLIC D86A‐D88A (Gloeobacter violaceus, UniProt Q7NDN8, D128A/D130A); format: cell-based; details: 1 mM at pHo 5.0, Figure 7 sample, mean
T8 construct: expressed in transfected cells; host or cells: tk-ts13 cells, pMT3 vector
T8 sequence (Q7NDN8 44-359 D128A/D130A): as the sequence (Q7NDN8 44-359 R147A) above, with D85A, D87A, A104R counted along it
Excerpt: (§2) Compound modulation of the D86A‐D88A pre‐β5 variant (AA), N152A mutant and WT GLIC, was investigated in the protocol with pre‐stimulation at pHo 5.0 (Figure 7).

GLIC N152A = molecular target: T9, GLIC N152A (Gloeobacter violaceus, UniProt Q7NDN8, N194A); format: cell-based; details: 1 mM at pHo 5.0, mean
T9 construct: expressed in transfected cells; host or cells: tk-ts13 cells, pMT3 vector
T9 sequence (Q7NDN8 44-359 N194A): as the sequence (Q7NDN8 44-359 R147A) above, with A104R, N151A counted along it
Excerpt: as §2

GLIC R133A [2] = molecular target: T10, GLIC R133A (Gloeobacter violaceus, UniProt Q7NDN8, R175A); format: cell-based; set-up: expressed in transfected cells; host or cells: tk-ts13 cells, pMT3 vector; details: 1 mM at pHo 5.0, mean
T10 sequence (Q7NDN8 44-359 R175A): as the sequence (Q7NDN8 44-359 R147A) above, with A104R, R132A counted along it
Protocol: as §1

WT GLIC [3] = molecular target: T1, WT GLIC; assay: Whole-cell patch-clamp, direct protocol (pHo jump and compound applied simultaneously), WT GLIC in tk-ts13 cells; format: cell-based; details: 1 mM at pHo 5.0, direct protocol, individual cells; for ratio of peak current values in the presence and in the absence of compound (Ipk[CBX@5.0]/Ipk[pHo 5.0]): first CBX application; for current decay (h) time constant: m^4 h fit
Excerpt: A direct protocol, where a pHo‐jump (from control pHo 7.5) and compound addition are applied simultaneously, was first used to examine the influence of saturated, short‐chain mono‐CBX compounds on low pHo‐induced GLIC current (Figure 1a).

GLIC R133A [4] = molecular target: T10, GLIC R133A; assay: Whole-cell patch-clamp, direct protocol, GLIC R133A
[5] = system: GLIC [AA + CBX‐pocket] triple mutants; assay: Whole-cell patch-clamp with pre-stimulation, [AA + CBX-pocket] triple mutants; details: 1 mM at pHo 5.0, compared to AA double mutant
Protocol: (§3) Nuclear injection of DNA was done on the day of reception of oocytes. […] Transfection was done within 24 h after cell seeding, using the DNA‐calcium phosphate co‐precipitation method. GFP‐positive cells were used for electrophysiology 1–2 days after transfection (tk‐ts13 cells), or 1–3 days after nuclear injection (oocytes). A mixture of DNAs coding for GLIC and GFP in separate pMT3 vectors was used, with amounts of [2 + 0.2] μg per 35 mm dish for transfections, or [0.04 + 0.02] g/L in water for injections.
(§4) The intracellular pipette solution was composed of (in mM): CsCl 150, MgCl2 1, HEPES 10, BAPTA 10, CsOH to pH 7.3. […] Lower pH values were reached by adding to this solution HCl 2 M in water (and more pH 7.5 solution to return pH up if necessary). […] A 3 M KCl, 5 g/L agar bridge was used to connect the reference electrode to the dish solution. […] Electric current flowing through the membrane from extracellular to intracellular face (inward current) is counted negative, and represented downwards in the figures. […]
(§5) Positive/negative modulation was evaluated as current in the presence of the compound, in percent of the control GLIC current value measured immediately before compound application (with a correction for GLIC current decay only for small inhibitions). […]

GLIC AA‐N152A = GLIC AA‐N152A (Gloeobacter violaceus, UniProt Q7NDN8, D128A/D130A/N194A); assay: Whole-cell patch-clamp with pre-stimulation, GLIC AA-N152A; details: CROTON 1 mM at pHo 5.0, single exponential fit
GLIC AA‐N152A, sequence (Q7NDN8 44-359 D128A/D130A/N194A): as the sequence (Q7NDN8 44-359 R147A) above, with D85A, D87A, A104R, N151A counted along it
Protocol: as §3, §4, §5

[6] = 5 or 10 mM, pre-stimulation at pHo 5.0, 2–5 cells each
[7] = pHo 5.5, mean ± SD, read-out: IC50 (from individual cells)
[8] = pHo 5.0, mean ± SD, read-out: IC50 (from individual cells)
[9] = SUCCIN 10 mM at pHo 5.0, without ACET, after ACET 1 mM 50 s, one cell

## C[C@H](N)C(=O)O [(L)‐alanine]
WT GLIC [1]; [6]
  effect on GLIC current: no effect

## CC(=O)O [ACET, Ethanoic acid]
GLIC R105A
  current in the presence of mono-CBX, % of control: 17.1 % of control
GLIC E177A
  current in the presence of mono-CBX, % of control: 14.9 % of control
GLIC R77A
  current in the presence of mono-CBX, % of control: 71.4 % of control
GLIC Y102A
  current in the presence of mono-CBX, % of control: 16.1 % of control
GLIC E104Q
  current in the presence of mono-CBX, % of control: 47.6 % of control
GLIC E181A
  impact of the E181A substitution on the NAM effect: no impact
GLIC D86A‐D88A
  current in the presence of mono-CBX, % of control: 14.6 % of control
GLIC N152A
  current in the presence of mono-CBX, % of control: 9.7 % of control
WT GLIC [1]
  current in the presence of mono-CBX, % of control: 12.2 % of control
  current in the presence of mono-CBX, % of control (100*I CBX/I CONTROL): 12.2 % of control
  activity on GLIC current (NAM effect): active
  reversibility of negative modulation (slow components): 3 to 10 min
WT GLIC [1]; ACET 1 mM at pHo 5.0, 50-180 s application, individual cells
  GLIC current in the presence of ACET, % of control: 17 % of control and 6.6 % of control and 5.5 % of control and 17.2 % of control and 11.3 % of control
WT GLIC [1]; pHo 5.5, 10 cells
  slope parameter (fit of the mean value): 1.6
WT GLIC [1]; pHo 5.5, 10 cells, read-out: IC50 (sigmoid fit of the mean value)
  IC50: 136 µM
WT GLIC [1]; [7]
  IC50: 128 µM
GLIC R133A [2]
  current in the presence of mono-CBX, % of control: 22.7 % of control
WT GLIC [3]
  ratio of peak current values in the presence and in the absence of compound (Ipk[CBX@5.0]/Ipk[pHo 5.0]): 0.400 and 0.424 and 0.533 and 0.575
  current decay (h) time constant: 2.90 s and 3.13 s and 3.33 s and 5.62 s

## CCCC(=O)O [BUTYR, Butanoic acid]
GLIC E181A
  impact of the E181A substitution on the NAM effect: no impact
WT GLIC [1]
  current in the presence of mono-CBX, % of control: 13.6 % of control
  current in the presence of mono-CBX, % of control (100*I CBX/I CONTROL): 10.3 % of control
WT GLIC [1]; [8]
  IC50: 219 µM
WT GLIC [1]; pHo 5.5, mean ± SD
  slope parameter nH (from individual cells): 1.5
WT GLIC [1]; [7]
  IC50: 150 µM
GLIC R133A [4]
  peak current inhibition: almost fully abolished
WT GLIC [3]
  ratio of peak current values in the presence and in the absence of compound (Ipk[CBX@5.0]/Ipk[pHo 5.0]): 0.257 and 0.332
  current decay (h) time constant: 0.541 s and 0.304 s

## O=C(O)/C=C/c1ccc(O)c(O)c1 [CAFFE, caffeic acid]
WT GLIC [1]; 0.1 mM at pHo 5.0, mean
  current in the presence of CAFFE, % of control: 17.4 % of control

## C/C=C/C(=O)O [CROTON, Butenoic acid]
GLIC E181A
  impact of the E181A substitution on the NAM effect: no impact
[5]
  CROTON PAM effect after adding a binding pocket mutation to AA (excluding AA‐N152A): fully abolished
WT GLIC [1]
  current in the presence of mono-CBX, % of control: 13.6 % of control
  current in the presence of mono-CBX, % of control (100*I CBX/I CONTROL): 11.9 % of control
WT GLIC [1]; [8]
  IC50: 191 µM
GLIC AA‐N152A
  decay constant tau of PAM ratio versus control current amplitude: 800 nA
GLIC R133A [4]
  peak current inhibition: almost fully abolished
WT GLIC [3]
  ratio of peak current values in the presence and in the absence of compound (Ipk[CBX@5.0]/Ipk[pHo 5.0]): 0.228 and 0.244
  current decay (h) time constant: 0.695 s and 0.583 s

## CC(O)C(=O)O (stereo not drawn) [DL‐lactate]
WT GLIC [1]; [6]
  effect on GLIC current: no effect

## O=C(O)/C=C/C(=O)O [FUMAR, (E)‐but‐2‐enedioic acid]
WT GLIC [1]
  current in the presence of di-CBX, % of control: 194 % of control

## NCCCC(=O)O [GABA, γ‐amino butyrate]
WT GLIC [1]; [6]
  effect on GLIC current: no effect

## CCC(=O)O [PROPION, Propanoic acid]
WT GLIC [1]
  activity on GLIC current (NAM effect): active
  reversibility of negative modulation (slow components): 3 to 10 min
WT GLIC [1]; pHo 5.5, mean ± SD
  slope parameter nH (from individual cells): 1.1
WT GLIC [1]; [7]
  IC50: 204 µM
WT GLIC [3]
  ratio of peak current values in the presence and in the absence of compound (Ipk[CBX@5.0]/Ipk[pHo 5.0]): 0.380
  current decay (h) time constant: 1.47 s

## O=C(O)CCC(=O)O [SUCCIN, Butanedioic acid]
WT GLIC [1]
  current in the presence of di-CBX, % of control: 142 % of control
WT GLIC [1]; [9]
  GLIC current with SUCCIN after ACET plateau, % of control current recorded immediately before ACET: 143 % of control
  GLIC current with SUCCIN after ACET plateau, % of current recorded in the presence of ACET: 2170 % of ACET current
WT GLIC [1]; SUCCIN 10 mM co-applied with ACET 1 mM, pHo 5.0, after 90, 120, 180 s of ACET, individual cells
  peak SUCCIN current (co-application with ACET), % of control current recorded immediately before ACET: 132 % of control and 28 % of control and 44 % of control
WT GLIC [1]; SUCCIN 10 mM co-applied with ACET 1 mM, pHo 5.0, individual cells
  peak SUCCIN current (co-application with ACET), % of ACET current: 753 % of ACET current and 505 % of ACET current and 392 % of ACET current

## CCCCC(=O)O [VALER, Pentanoic acid]
WT GLIC [1]; IC50 (from individual cells), pHo 5.0, mean ± SD
  IC50: 289 µM

## O=C(O)CC(O)(CC(=O)O)C(=O)O [citrate]
WT GLIC [1]; citrate used as buffer, conditions not given
  effect on GLIC current: no effect

## NCC(=O)O [glycine]
WT GLIC [1]; [6]
  effect on GLIC current: no effect

## CC(=O)C(=O)O [pyruvate]
WT GLIC [1]; [6]
  effect on GLIC current: no effect

## NCCC(=O)O [β‐alanine]
WT GLIC [1]; [6]
  effect on GLIC current: no effect

## phosphate
WT GLIC [1]; 1 and 10 mM at pH 5.0, extracellular solution without CaCl2, n = 4 cells
  effect on GLIC activity: no effect
